The numbers were not newly measured in patent US6436991B1, “Composition and method containing products extracted from Commiphora sp. for prevention and treatment of abnormal cell growth and proliferation in inflammation, neoplasia and cardiovascular disease” (Sabinsa Corporation, priority 2000, dated 2002), which cites them from elsewhere.

For the series the following is noted: literature values; read-out: IC50, DPPH radical scavenging (reported, Chen and Ho 1995). For orientation: DPPH is a stable violet radical that fades when it is reduced.

One may read the IC50 as the concentration that gives 50% inhibition. For the compound `O=C(O)c1cc(O)c(O)c(O)c1` [gallic acid], the IC50 was 10.6 µM.
On to catechin, for which the IC50 was 18.6 µM.
